# Patent US20250312462A1, “PAK1 DEGRADERS AND METHODS OF USE THEREOF” (INSTITUTE FOR CANCER RESEARCH D/B/A THE RESEARCH INSTITUTE …, priority 2022, published 2025)
# Key:
# GRK3 = GRK3 (Homo sapiens, UniProt P35626); test: KINOMEscan; conditions: read-out: Percent Control
# Method: (§1) The kinase engagement assay (KINOMEscan®) was performed by DiscoverX assessing binding abilities toward a set of kinases.
# FLT3(D835V) = FLT3(D835V) (Homo sapiens, UniProt P36888, D835V); test: KINOMEscan; conditions: read-out: Percent Control
# Method: as §1
# FLT3(ITD, F691L) = test: KINOMEscan; conditions: 10 μM
# Method: as §1
# PAK1 [1] = target: T1, PAK1 (Homo sapiens, UniProt Q13153); test: Global multiplexed mass spectrometry proteomics in MOLT4 cells; type: cell-based; design: endogenous in cells; host or cells: MOLT4; conditions: 1 μM, 5 hours
# T1 sequence (Q13153 whole entry): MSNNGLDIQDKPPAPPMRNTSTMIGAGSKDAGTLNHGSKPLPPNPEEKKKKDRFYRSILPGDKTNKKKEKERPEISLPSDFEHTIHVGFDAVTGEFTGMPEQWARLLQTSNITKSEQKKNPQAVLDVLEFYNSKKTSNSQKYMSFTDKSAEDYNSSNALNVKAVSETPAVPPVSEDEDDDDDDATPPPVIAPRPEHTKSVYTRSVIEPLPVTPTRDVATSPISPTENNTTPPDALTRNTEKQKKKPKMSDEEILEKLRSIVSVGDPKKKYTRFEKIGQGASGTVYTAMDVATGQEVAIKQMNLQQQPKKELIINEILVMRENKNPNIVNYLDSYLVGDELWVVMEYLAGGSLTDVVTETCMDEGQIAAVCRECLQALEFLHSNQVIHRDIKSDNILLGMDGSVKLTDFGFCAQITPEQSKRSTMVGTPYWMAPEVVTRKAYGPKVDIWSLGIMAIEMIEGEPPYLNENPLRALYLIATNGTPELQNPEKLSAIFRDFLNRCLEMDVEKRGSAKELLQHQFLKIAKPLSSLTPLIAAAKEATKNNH
# Method: MOLT4 cells were treated with DMSO in biological triplicate and 1 μM BJG-05-039 for 5 hours and harvested by centrifugation. Cell lysis was performed by the addition of Urea buffer (8 M Urea, 50 mM NaCl, 50 mM 4-(2-hydroxyethyl)-1-piperazineethanesulfonic acid (EPPS) pH 8.5, Protease and Phosphatase inhibitors) followed by manual homogenization by 20 passes through a 21-gauge (1.25 in. long) needle. Lysate was clarified by centrifugation at 4° C. and protein quantified using bradford (Bio-Rad) assay. 100 μg of protein for each sample was reduced, alkylated and precipitated using methanol/chloroform as described (Donovan, et al. (2018) Elife 7: e38430). The resulting precipitated protein was resuspended in 4 M Urea, 50 mM HEPES pH 7.4, buffer for solubilization, followed by dilution to 1 M urea with the addition of 200 mM EPPS, pH 8. Proteins were digested for 12 hours at room temperature with LysC (1:50 ratio), followed by dilution to 0.5 M urea and a second digestion step was performed by addition of trypsin (1:50 ratio) for 6 hours at 37° C. […]
# Quantification was performed using a MS3-based TMT method as described (Donovan et al. (2020) Cell 183(6):1714-1731). […]
# Proteome Discoverer 2.4 (Thermo Fisher Scientific) was used for .RAW file processing and controlling peptide and protein level false discovery rates, assembling proteins from peptides, and protein quantification from peptides. […]
# PAK1 [2] = target: T1, PAK1; test: KINOMEscan; conditions: read-out: Percent Control
# Method: as §1
# [3] = target: ABL1(F317I)-phosphorylated (Homo sapiens, UniProt P00519, F317I); test: KINOMEscan; conditions: read-out: Percent Control
# ABL1(F317I)-phosphorylated, sequence (P00519 whole entry F317I): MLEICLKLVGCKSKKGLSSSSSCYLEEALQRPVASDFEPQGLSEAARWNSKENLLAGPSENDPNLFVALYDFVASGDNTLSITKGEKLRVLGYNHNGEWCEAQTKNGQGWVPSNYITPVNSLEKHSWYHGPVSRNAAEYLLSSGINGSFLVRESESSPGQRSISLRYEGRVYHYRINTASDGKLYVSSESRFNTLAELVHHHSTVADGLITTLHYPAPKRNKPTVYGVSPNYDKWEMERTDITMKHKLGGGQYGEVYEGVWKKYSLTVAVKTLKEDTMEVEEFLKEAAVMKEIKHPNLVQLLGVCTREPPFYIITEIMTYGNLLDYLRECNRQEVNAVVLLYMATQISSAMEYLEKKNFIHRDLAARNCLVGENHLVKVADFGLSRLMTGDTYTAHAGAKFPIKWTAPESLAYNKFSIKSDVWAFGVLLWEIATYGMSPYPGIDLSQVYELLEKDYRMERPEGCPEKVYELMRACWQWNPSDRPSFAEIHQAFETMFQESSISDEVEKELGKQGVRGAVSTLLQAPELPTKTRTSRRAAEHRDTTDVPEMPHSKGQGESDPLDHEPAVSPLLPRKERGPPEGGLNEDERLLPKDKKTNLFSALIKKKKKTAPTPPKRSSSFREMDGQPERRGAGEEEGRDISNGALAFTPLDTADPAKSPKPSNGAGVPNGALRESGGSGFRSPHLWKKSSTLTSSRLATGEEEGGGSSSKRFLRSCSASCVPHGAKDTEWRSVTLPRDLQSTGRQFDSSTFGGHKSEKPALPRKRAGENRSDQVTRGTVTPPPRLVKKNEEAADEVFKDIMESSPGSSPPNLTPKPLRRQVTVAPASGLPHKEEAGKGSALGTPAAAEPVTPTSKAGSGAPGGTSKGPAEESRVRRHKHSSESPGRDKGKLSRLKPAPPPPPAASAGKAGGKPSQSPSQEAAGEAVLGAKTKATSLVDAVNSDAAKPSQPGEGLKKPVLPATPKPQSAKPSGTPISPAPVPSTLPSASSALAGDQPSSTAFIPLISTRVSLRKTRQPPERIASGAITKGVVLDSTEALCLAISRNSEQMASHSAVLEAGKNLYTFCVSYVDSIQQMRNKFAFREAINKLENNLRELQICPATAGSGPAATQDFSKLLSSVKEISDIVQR
# Method: as §1
# FLT3(ITD, D835V) = test: KINOMEscan; conditions: 10 μM
# Method: as §1
# ERK1 = ERK1 (Homo sapiens, UniProt P27361); test: KINOMEscan; conditions: read-out: Percent Control
# ERK1, sequence (P27361 whole entry): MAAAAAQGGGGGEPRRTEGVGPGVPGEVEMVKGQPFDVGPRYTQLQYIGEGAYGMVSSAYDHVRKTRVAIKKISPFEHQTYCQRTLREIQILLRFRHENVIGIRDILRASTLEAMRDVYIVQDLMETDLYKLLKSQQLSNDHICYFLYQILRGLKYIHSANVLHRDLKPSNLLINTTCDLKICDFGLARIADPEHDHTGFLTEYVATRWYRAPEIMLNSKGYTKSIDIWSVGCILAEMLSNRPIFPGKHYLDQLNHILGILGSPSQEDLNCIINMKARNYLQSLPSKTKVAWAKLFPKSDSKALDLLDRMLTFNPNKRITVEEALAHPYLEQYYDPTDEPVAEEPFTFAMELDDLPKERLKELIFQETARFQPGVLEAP
# Method: as §1
# CDK9 = CDK9 (Homo sapiens, UniProt P50750); test: KINOMEscan; conditions: read-out: Percent Control
# CDK9, sequence (P50750 whole entry): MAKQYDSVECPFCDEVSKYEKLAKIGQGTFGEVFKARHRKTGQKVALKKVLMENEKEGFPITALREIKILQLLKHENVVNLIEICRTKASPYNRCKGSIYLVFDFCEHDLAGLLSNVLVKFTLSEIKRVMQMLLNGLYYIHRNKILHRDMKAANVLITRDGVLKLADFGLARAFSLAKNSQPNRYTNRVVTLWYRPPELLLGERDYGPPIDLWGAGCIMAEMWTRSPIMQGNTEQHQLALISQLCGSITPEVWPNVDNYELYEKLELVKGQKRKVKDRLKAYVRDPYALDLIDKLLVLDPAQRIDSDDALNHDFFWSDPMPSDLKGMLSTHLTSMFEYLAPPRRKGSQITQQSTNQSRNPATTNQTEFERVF
# Method: as §1
# TYRO3 = TYRO3 (Homo sapiens, UniProt Q06418); test: KINOMEscan; conditions: read-out: Percent Control
# TYRO3, sequence (Q06418 41-890): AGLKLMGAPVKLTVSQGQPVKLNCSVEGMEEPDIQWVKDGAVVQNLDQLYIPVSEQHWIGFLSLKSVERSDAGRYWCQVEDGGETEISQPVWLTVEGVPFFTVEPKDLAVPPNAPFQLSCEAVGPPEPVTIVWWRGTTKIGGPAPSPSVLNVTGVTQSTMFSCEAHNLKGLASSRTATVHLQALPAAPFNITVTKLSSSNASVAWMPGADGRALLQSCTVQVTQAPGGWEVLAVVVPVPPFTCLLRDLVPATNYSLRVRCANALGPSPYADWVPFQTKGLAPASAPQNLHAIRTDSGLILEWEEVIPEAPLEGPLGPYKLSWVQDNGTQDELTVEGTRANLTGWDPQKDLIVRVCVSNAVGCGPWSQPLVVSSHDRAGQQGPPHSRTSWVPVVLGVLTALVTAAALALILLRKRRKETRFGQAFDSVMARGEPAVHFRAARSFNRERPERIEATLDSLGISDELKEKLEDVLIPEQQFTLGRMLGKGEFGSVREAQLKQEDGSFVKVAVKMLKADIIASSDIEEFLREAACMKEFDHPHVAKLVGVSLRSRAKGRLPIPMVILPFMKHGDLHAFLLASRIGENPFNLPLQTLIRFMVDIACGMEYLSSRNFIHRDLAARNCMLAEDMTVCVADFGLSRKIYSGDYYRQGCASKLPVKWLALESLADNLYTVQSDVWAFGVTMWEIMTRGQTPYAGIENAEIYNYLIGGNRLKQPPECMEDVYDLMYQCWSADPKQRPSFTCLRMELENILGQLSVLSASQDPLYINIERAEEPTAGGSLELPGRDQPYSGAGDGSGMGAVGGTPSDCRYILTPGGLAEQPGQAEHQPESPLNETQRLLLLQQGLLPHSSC
# Method: as §1
# TRKC = TRKC (Homo sapiens, UniProt Q16288); test: KINOMEscan; conditions: read-out: Percent Control
# Method: as §1
# CDKL3 = CDKL3 (Homo sapiens, UniProt Q8IVW4); test: KINOMEscan; conditions: read-out: Percent Control
# Method: as §1
# MYO3A = MYO3A (Homo sapiens, UniProt Q8NEV4); test: KINOMEscan; conditions: read-out: Percent Control
# Method: as §1
# MYLK2 = MYLK2 (Homo sapiens, UniProt Q9H1R3); test: KINOMEscan; conditions: read-out: Percent Control
# Method: as §1
# ROCK1 = ROCK1 (Homo sapiens, UniProt Q13464); test: KINOMEscan; conditions: read-out: Percent Control
# Method: as §1
# TESK1 = TESK1 (Homo sapiens, UniProt Q15569); test: KINOMEscan; conditions: read-out: Percent Control
# TESK1, sequence (Q15569 whole entry): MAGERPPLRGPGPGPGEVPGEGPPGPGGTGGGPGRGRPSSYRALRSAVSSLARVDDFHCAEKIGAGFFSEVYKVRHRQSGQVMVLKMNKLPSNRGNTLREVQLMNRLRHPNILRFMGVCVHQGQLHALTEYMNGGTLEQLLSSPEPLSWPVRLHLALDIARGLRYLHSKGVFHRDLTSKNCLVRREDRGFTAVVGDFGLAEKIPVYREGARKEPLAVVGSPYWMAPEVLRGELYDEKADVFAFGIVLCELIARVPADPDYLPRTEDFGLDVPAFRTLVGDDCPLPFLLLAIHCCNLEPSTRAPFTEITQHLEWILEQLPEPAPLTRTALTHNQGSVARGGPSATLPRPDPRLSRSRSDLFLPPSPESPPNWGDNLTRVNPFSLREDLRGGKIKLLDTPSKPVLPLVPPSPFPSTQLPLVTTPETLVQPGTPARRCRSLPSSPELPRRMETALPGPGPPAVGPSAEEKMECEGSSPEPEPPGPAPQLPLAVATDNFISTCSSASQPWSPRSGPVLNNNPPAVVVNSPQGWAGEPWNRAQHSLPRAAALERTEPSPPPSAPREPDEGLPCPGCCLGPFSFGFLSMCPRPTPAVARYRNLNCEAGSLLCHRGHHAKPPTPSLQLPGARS
# Method: as §1
# CAMK1 = CAMK1 (Homo sapiens, UniProt Q14012); test: KINOMEscan; conditions: read-out: Percent Control
# CAMK1, sequence (Q14012 whole entry): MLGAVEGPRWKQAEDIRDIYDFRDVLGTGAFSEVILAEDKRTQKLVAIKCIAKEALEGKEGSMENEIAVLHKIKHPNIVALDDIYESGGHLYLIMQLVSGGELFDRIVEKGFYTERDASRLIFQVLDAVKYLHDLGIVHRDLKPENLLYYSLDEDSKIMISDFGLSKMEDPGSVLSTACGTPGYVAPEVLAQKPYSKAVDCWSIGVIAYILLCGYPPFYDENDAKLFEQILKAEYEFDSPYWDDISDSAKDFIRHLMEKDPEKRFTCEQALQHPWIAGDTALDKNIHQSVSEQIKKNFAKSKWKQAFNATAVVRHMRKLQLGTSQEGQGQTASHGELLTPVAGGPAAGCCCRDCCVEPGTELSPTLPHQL
# Method: as §1
# GRK3, sequence (P35626 whole entry): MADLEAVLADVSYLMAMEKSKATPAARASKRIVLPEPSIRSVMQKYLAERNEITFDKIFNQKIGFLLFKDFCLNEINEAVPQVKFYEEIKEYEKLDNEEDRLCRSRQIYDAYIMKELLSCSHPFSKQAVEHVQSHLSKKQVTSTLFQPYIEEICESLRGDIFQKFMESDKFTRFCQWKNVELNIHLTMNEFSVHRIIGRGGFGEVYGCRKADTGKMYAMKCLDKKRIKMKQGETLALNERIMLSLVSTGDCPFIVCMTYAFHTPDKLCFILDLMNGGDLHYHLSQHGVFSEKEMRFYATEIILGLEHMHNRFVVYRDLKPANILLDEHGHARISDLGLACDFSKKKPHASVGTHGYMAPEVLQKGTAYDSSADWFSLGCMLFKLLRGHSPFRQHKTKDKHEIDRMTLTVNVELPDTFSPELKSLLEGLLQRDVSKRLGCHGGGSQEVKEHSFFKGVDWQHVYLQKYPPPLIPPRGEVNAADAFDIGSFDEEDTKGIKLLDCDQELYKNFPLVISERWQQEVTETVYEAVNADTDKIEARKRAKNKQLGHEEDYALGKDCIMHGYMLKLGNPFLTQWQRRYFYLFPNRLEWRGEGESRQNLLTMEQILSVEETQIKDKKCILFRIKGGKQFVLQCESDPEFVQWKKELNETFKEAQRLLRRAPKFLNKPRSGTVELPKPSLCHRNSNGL
smiles,measurement,setting,value
"O=C1CCC(N2C(=O)c3cccc(NCCCCCCCCNC(=O)N4CC[C@H](NC5=Nc6cc(F)ccc6N(CC(F)F)c6ccc(Cl)cc65)C4)c3C2=O)C(=O)N1 (stereo partly drawn) [BJG-05-039, (3S)-3-((2-Chloro-5-(2,2-difluoroethyl)-8-fluoro-5H-dibenzo[b,e][1,4]diazepin-11-yl)amino)-N-(8-((2-(2,6-dioxopiperidin-3-yl)-1,3-dioxoisoindolin-4-yl)amino)octyl)pyrrolidine-1-carboxamide]",remaining binding at 10 µM,GRK3,92%
same,remaining binding at 10 µM,FLT3(D835V),76%
same,Percent Control,"FLT3(ITD, F691L)",94
same,Change in protein abundance,PAK1 [1],significant downregulation of this kinase was not apparent
same,remaining binding at 10 µM,PAK1 [2],20%
same,remaining binding at 10 µM,[3],100%
same,Percent Control,"FLT3(ITD, D835V)",95
same,remaining binding at 10 µM,ERK1,83%
same,remaining binding at 10 µM,CDK9,53%
same,remaining binding at 10 µM,TYRO3,72%
same,remaining binding at 10 µM,TRKC,100%
same,remaining binding at 10 µM,CDKL3,98%
same,remaining binding at 10 µM,MYO3A,67%
same,remaining binding at 10 µM,MYLK2,93%
same,remaining binding at 10 µM,ROCK1,100%
same,remaining binding at 10 µM,TESK1,92%
same,remaining binding at 10 µM,CAMK1,52%
